Source: US9376380B2 (University of Pittsburgh—Of the Commonwealth System of …, priority 2011, dated 2016)
Where two headings read alike, the source gives them in different places.

Biological target: CB2 receptor (Homo sapiens, UniProt P34972)
Experiment: [3H]CP-55,940 radioligand competition binding, CB2
Design: host or cells: cell membrane preparations
Conditions: for SI: selectivity index for CB2: Ki(CB1)/Ki(CB2) ratio
[1] = [3H]CP-55,940 displacement, read-out: Ki (CB2)

CB2 receptor, sequence (P34972 whole entry): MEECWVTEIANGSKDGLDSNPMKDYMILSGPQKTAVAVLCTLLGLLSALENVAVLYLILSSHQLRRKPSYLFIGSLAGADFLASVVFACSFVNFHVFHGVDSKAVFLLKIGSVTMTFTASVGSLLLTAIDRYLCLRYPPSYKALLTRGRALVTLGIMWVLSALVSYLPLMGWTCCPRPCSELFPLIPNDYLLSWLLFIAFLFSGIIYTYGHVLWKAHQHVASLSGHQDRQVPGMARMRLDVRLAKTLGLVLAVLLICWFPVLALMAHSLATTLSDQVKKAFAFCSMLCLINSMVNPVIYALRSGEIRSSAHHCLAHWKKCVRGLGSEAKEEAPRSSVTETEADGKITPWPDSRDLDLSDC
Experimental: Briefly, the bioassay is carried out using the Perkin Elmer 96-well Top Counter. […] The procedure is as follows.
In competition binding experiments, the tested compound dilutions are carried out in duplicate in TME buffer (25 mM Tris, 5 mM MgCl2, 1 mM EDTA) containing 0.1% (w/v) fatty acid free bovine serum albumin (BSA), pH 7.4. […] TME buffer and cell membrane preparations expressing CB receptors (5 μg per well) are added to a final volume of 200 μL. […] After the binding suspensions are incubated at 30° C. for 1 hr, the reaction is terminated by rapid filtration through microfiltration plates (Unifilter GF/B filterplate, PerkinElmer), followed by 5 washes with ice cold TME buffer containing 0.1% BSA on a Packard Filtermate Harvester (PerkinElmer). The plates are then dried overnight and 30 μl MicroScint 0 scintillation cocktail is added to each well of the dried filter plates. The bound radioactivity is then counted using a Perkin Elmer 96-well TopCounter. […] This assay is used for determination of the binding affinity parameters (Ki) of ligand-receptor interactions for the CB receptor.

Row | SMILES | Ki [1] [µM] | SI: selectivity index for CB2 | Ki [µM]
1 | O=C(Cc1ccc(C(F)(F)F)cc1)NC(NC(=O)Cc1ccc(C(F)(F)F)cc1)c1ccc(Cl)cc1 [Compound 33, N,N′-((4-chlorophenyl)methylene)bis(2-(4-(trifluoromethyl)phenyl)acetamide)] | > 20 |  | 
2 | O=C(Cc1ccccc1)NC(NC(=O)Cc1ccccc1)c1ccc([N+](=O)[O-])cc1 [Compound 15, N,N′-((4-nitrophenyl)methylene)bis(2-phenylacetamide)] | > 20 |  | 
3 | CCCCCCCN(Cc1ccc(N(CC)CC)cc1)C(=O)c1ccc(N(C)C)cc1 [Compound 78, N-(4-(Diethylamino)benzyl)-4-(dimethylamino)-N-heptylbenzamide] | 1.28 |  | 
4 | CCCCCCCN(Cc1ccc(N(CC)CC)cc1)S(=O)(=O)c1cccc(C)c1 [Compound 68, N-(4-(Diethylamino)benzyl)-N-heptyl-3-methylbenzenesulfonamide] | 2.3 |  | 
5 | O=C(Cc1ccc(Cl)cc1)NC(NC(=O)Cc1ccc(Cl)cc1)c1ccc(F)cc1 [Compound 23, N,N′-((4-fluorophenyl)methylene)bis(2-(4-chlorophenyl)acetamide)] | > 20 |  | 
6 | COc1ccc(C(NC(=O)Cc2ccc(Cl)cc2)NC(=O)Cc2ccc(Cl)cc2)cc1 [Compound 26, N,N′-((4-methoxyphenyl)methylene)bis(2-(4-chlorophenyl)acetamide)] | 0.31 | >65 | 
7 | CCCCC(=O)NC(NC(=O)CCCC)c1ccc(N(CC)CC)cc1 [Compound 52, N,N′-((4-(diethylamino)phenyl)methylene)dipentanamide] | 0.182 | >109 | 
8 | O=C(Cc1ccc(Cl)cc1)NC(NC(=O)Cc1ccc(Cl)cc1)c1ccc(C(F)(F)F)cc1 [Compound 28, N,N′-((4-(trifluoromethyl)phenyl)methylene)bis(2-(4-chlorophenyl)acetamide)] | 0.101 | >198 | 
9 | O=C(Cc1ccc(Cl)cc1)NC(NC(=O)Cc1ccc(Cl)cc1)c1ccccc1 [Compound 21, N,N′-(phenylmethylene)bis(2-(4-chlorophenyl)acetamide)] | > 20 |  | 
10 | CCCCCCCN(Cc1ccc(N(CC)CC)cc1)C(=O)Cc1ccc(Cl)cc1 [Compound 77, 2-(4-Chlorophenyl)-N-(4-(diethylamino)benzyl)-N-heptylacetamide] | 0.696 |  | 
11 | CCCCCC(=O)NC(NC(=O)CCCCC)c1ccc(N(CC)CC)cc1 [Compound 53, N,N′-((4-(diethylamino)phenyl)methylene)dihexanamide] | 0.025 | >800 | 
12 | CCCCN(CCCC)c1ccc(C(NC(=O)Cc2ccccc2)NC(=O)Cc2ccccc2)cc1 [Compound 18, N,N′-((4-(dibutylamino)phenyl)methylene)bis(2-phenylacetamide)] | 0.221 | >90 | 
13 | CCCCCCCN(Cc1ccc(N(CC)CC)cc1)S(=O)(=O)c1ccc(OC)cc1 [Compound 70, N-(4-(Diethylamino)benzyl)-N-heptyl-4-methoxybenzenesulfonamide] | 5.19 |  | 
14 | O=C(Cc1ccc(C(F)(F)F)cc1)NC(NC(=O)Cc1ccc(C(F)(F)F)cc1)c1ccccc1F [Compound 31, N,N′-((2-fluorophenyl)methylene)bis(2-(4-(trifluoromethyl)phenyl)acetamide)] | > 20 |  | 
15 | CCCCCCCN(Cc1ccc(N(CC)CC)cc1)S(=O)(=O)CCCC [Compound 75, N-(4-(Diethylamino)benzyl)-N-heptylbutane-1-sulfonamide] | 0.68 |  | 
16 | CCCCCCCN(Cc1ccc(N(CC)CC)cc1)S(=O)(=O)c1ccc(C(C)C)cc1 [Compound 69, N-(4-(Diethylamino)benzyl)-N-heptyl-4-isopropylbenzenesulfonamide] | 13 |  | 
17 | CCOc1ccc(C(NC(=O)Cc2ccccc2)NC(=O)Cc2ccccc2)cc1 [Compound 11, N,N′-((4-ethoxyphenyl)methylene)bis(2-phenylacetamide)] | 1.5 |  | 
18 | CCN(CC)c1ccc(CN(C23CC4CC(CC(C4)C2)C3)S(=O)(=O)c2ccc(C(C)C)cc2)cc1 [Compound 62, N-((3s,5s,7s)-Adamantan-1-yl)-N-(4-(diethylamino)benzyl)-4-isopropylbenzenesulfonamide] |  |  | 0.457
19 | CCCCCCCC(=O)N(CCCCCCC)Cc1ccc(N(CC)CC)cc1 [Compound 80, N-(4-(Diethylamino)benzyl)-N-heptyloctanamide] | > 20 |  | 
20 | O=C(Cc1ccc(C(F)(F)F)cc1)NC(NC(=O)Cc1ccc(C(F)(F)F)cc1)c1ccc(C(F)(F)F)cc1 [Compound 36] | > 20 |  | 
21 | CCN(CC)c1ccc(CN(C23CC4CC(CC(C4)C2)C3)S(=O)(=O)c2ccc(OC)cc2)cc1 [Compound 59, N-(3r)-Adamantan-1-yl)-N-(4-(diethylamino)benzyl)-4-methoxybenzenesulfonamide] | 0.137 |  | 
22 | O=C(Cc1ccccc1)NC(/C=C/c1ccccc1)NC(=O)Cc1ccccc1 [Compound 39, (E)-N,N′-(3-phenylprop-2-ene-1,1-diyl)bis(2-phenylacetamide)] | 5.68 |  | 
23 | CCCCCCCC(=O)NC(NC(=O)CCCCCCC)c1ccc(N(CC)CC)cc1 [Compound 54, N,N′-((4-(diethylamino)phenyl)methylene)dioctanamide] | 0.146 | >136 | 

Row | SMILES | Ki [1] [µM] | SI: selectivity index for CB2 | Ki [µM]
24 | O=C(Cc1ccc(C(F)(F)F)cc1)NC(NC(=O)Cc1ccc(C(F)(F)F)cc1)c1ccc(F)cc1 [Compound 32, N,N′-((4-fluorophenyl)methylene)bis(2-(4-(trifluoromethyl)phenyl)acetamide)] | > 20 |  | 
25 | O=C(Cc1ccccc1)NC(NC(=O)Cc1ccccc1)c1ccc(C(F)(F)F)cc1 [Compound 14, N,N′-((4-(trifluoromethyl)phenyl)methylene)bis(2-phenylacetamide)] | 0.596 | >34 | 
26 | CCN(CC)c1ccc(CNc2ccc(Cl)cc2)cc1 [G, 4-(((4-Chlorophenyl)amino)methyl)-N,N′-diethylaniline] | 6.74 |  | 
27 | COc1ccc(C(NC(=O)Cc2ccc(C(F)(F)F)cc2)NC(=O)Cc2ccc(C(F)(F)F)cc2)cc1 [Compound 35, N,N′-((4-methoxyphenyl)methylene)bis(2-(4-(trifluoromethyl)phenyl)acetamide)] | > 20 |  | 
28 | O=C(Cc1ccccc1)NC(NC(=O)Cc1ccccc1)c1ccc(Br)cc1 [Compound 7, N,N′-((4-bromophenyl)methylene)bis(2-phenylacetamide)] | 2.23 |  | 
29 | O=C(Cc1ccccc1)NC(NC(=O)Cc1ccccc1)c1ccc(F)cc1 [Compound 5, N,N′-((4-fluorophenyl)methylene)bis(2-phenylacetamide)] | 10.9 |  | 
30 | CCCCCC(NC(=O)Cc1ccccc1)NC(=O)Cc1ccccc1 [Compound 41, N,N′-(hexane-1,1-diyl)bis(2-phenylacetamide)] | 18.2 |  | 
31 | CCN(CC)c1ccc(CN(c2ccc(C)cc2)S(=O)(=O)c2ccc(C)cc2)cc1 [Compound 94, N-(4-(Diethylamino)benzyl)-4-methyl-N-(p-tolyl)benzenesulfonamide] | 0.0054 |  | 
32 | CCN(CC)c1ccc(CNC23CC4CC(CC(C4)C2)C3)cc1 [B, (3s,5s,7s)-N-(4-(Diethylamino)benzyl)adamantan-1-amine] | 20 | 130 | 
33 | O=C(Cc1ccc(C(F)(F)F)cc1)NC(NC(=O)Cc1ccc(C(F)(F)F)cc1)c1ccccc1 [Compound 30, N,N′-(phenylmethylene)bis(2-(4-(trifluoromethyl)phenyl)acetamide)] | > 20 |  | 
34 | CCN(CC)c1ccc(C(NC(=O)c2ccccc2)NC(=O)c2ccccc2)cc1 [Compound 49, N,N′-((4-(Diethylamino)phenyl)methylene)dibenzamide] | 0.688 | >29 | 
35 | CCCCCCCC(=O)N(Cc1ccc(N(CC)CC)cc1)C12CC3CC(CC(C3)C1)C2 [Compound 64, N-((3s,5s,7s)-Adamantan-1-yl)-N-(4-(diethylamino)benzyl)octanamide] | 0.638 |  | 
36 | O=C(Cc1ccccc1)NC(NC(=O)Cc1ccccc1)c1cccc(F)c1 [Compound 4, N,N′-((3-fluorophenyl)methylene)bis(2-phenylacetamide)] | 12.7 |  | 
37 | O=C(Cc1ccccc1)NC(NC(=O)Cc1ccccc1)c1ccc(N2CCCCC2)cc1 [Compound 19, N,N′-((4-(piperidin-1-yl)phenyl)methylene)bis(2-phenylacetamide)] | 0.595 | >34 | 
38 | CCCCCCCN(Cc1ccc(N(CC)CC)cc1)C(=O)Cc1ccccc1 [Compound 76, N-(4-(Diethylamino)benzyl)-N-heptyl-2-phenylacetamide] | 1.31 |  | 
39 | CCCCCCCN(Cc1ccc(N(CC)CC)cc1)S(=O)(=O)c1ccc(F)cc1 [Compound 72, N-(4-(Diethylamino)benzyl)-4-fluoro-N-heptylbenzenesulfonamide] | 1.1 |  | 
40 | CCCCCCCN(Cc1ccc(N(CC)CC)cc1)S(=O)(=O)c1ccc(Cl)cc1 [Compound 73, 4-Chloro-N-(4-(diethylamino)benzyl)-N-heptylbenzenesulfonamide] | 6.74 |  | 
41 | CCCCC(NC(=O)Cc1ccccc1)NC(=O)Cc1ccccc1 [Compound 40, N,N′-(pentane-1,1-diyl)bis(2-phenylacetamide)] | 36 |  | 
42 | CCCCCCCN(Cc1ccc(N(CC)CC)cc1)S(=O)(=O)c1ccc(OC(C)C)cc1 [Compound 71, N-(4-(Diethylamino)benzyl)-N-heptyl-4-isopropoxybenzenesulfonamide] | > 20 |  | 
43 | O=C(Cc1ccc(Cl)cc1)NC(NC(=O)Cc1ccc(Cl)cc1)c1ccccc1F [Compound 22, N,N′-((2-fluorophenyl)methylene)bis(2-(4-chlorophenyl)acetamide)] | 10.8 |  | 
44 | CCCCCCCN(Cc1ccc(N(CC)CC)cc1)S(=O)(=O)Cc1ccccc1 [Compound 74, N-(4-(Diethylamino)benzyl)-N-heptyl-1-phenylmethanesulfonamide] | 0.273 |  | 
45 | CCN(CC)c1ccc(CN(c2ccc(Cl)cc2)S(=O)(=O)c2ccc(C(C)C)cc2)cc1 [Compound 87, N-(4-Chlorophenyl)-N-(4-(diethylamino)benzyl)-4-isopropylbenzenesulfonamide] | 0.222 |  | 
